# Laboratory results as given in patent publication US9260436B2 (Sumitomo Chemical Company, Limited, priority 2012, dated 2016).
# System: Aphis gossypii
# Assay: Test Example 2: foot drench of cucumber seedling, then inoculation with Aphis gossypii
# Format: in vivo
# Conditions: 500 ppm, 5 ml drenched at foot of cucumber seedling, 7 days then inoculation, further 6 days
# Description: On the other hand, a cucumber seedling (the second true leaf stage) planted in a plastic cup was drenched at its foot with 5 ml of the test drug solution, and kept in a greenhouse at 25° C. for 7 days. On the cucumber leaf surface was inoculated 30 Aphis gossypii (whole stage), and further kept in the greenhouse for 6 days, then the number of surviving Aphis gossypii parasitized on the leaves of the cucumber was examined, and the controlling value was calculated according to the following equation: Controlling value (%)={1−(Cb×Tai)/(Cai×Tb)}×100 wherein the symbols represent as follows: Cb: the number of insects in a non-treated section before treatment, Cai: the number of insects in a non-treated section on observation, Tb: the number of insects in a treated section before treatment, Tai: the number of insects in a treated section on observation, wherein the non-treated section refers to a section where the test drug solution prepared by diluting the formulation not containing the compound of the present invention as in Formulation Example 5 with the same amount of water as in the treated section was sprayed.
row,Compound,controlling value [%]
1,CCS(=O)(=O)c1ccccc1-c1cnc2nc(C(F)(F)F)cn2c1,≥ 90

# System: Haemaphysalis longicornis
# Assay: Test Example 11: coated screw tube contact test, Haemaphysalis longicornis nymphal ticks
# Format: in vivo
# Conditions: 48 h, 2 mg compound in 0.2 mL acetone coated on inner wall of screw tube, after 2 days, read-out: death rate
# Description: 2 mg of each of Compounds of Present Invention 6, 8, 10, 26, 28, 29, 33, 35 and 37 was weighed in a screw tube (Maruemu No. 5; 27×55 mm), and 0.2 mL of acetone was added thereto and sealed with a cap to dissolve the compound. The screw tube was rotated and inverted to uniformity coat the drug solution onto the whole inner wall of the tube. After removing the cap, the solution was air-dried for about 2 hours, then non-blood-sucking nymphal ticks, Haemaphysalis longicornis (5 ticks/group) were released, and the tube was sealed with the cap. After 2 days, the number of dead ticks was examined, and the death rate was calculated according to the following equation: Death rate (%)=100×(Number of dead ticks/Number of tested ticks).
row,Compound,pest or weed control at 2 mg/tube [%]
1,"CCCNc1nc(-c2ccccc2SCC)nc2cc(C(F)(F)F)ccc12 [Compound of Present Invention 8, 2-(2-ethylsulfanylphenyl)-4-propylamino-7-trifluoromethylquinazoline]",100
2,"CCCNc1nc(-c2ccccc2S(=O)(=O)CC)nc2cc(C(F)(F)F)ccc12 [Compound of Present Invention 10, 2-(2-ethylsulfonylphenyl)-4-propylamino-7-trifluoromethylquinazoline]",100
3,"CCSc1ccccc1-c1ccc2nc(C(F)(F)F)cn2c1 [Compound of Present Invention 26, 6-(2-ethylsulfanylphenyl)-2-trifluoromethylimidazo[1,2-a]pyridine]",100
4,"CCSc1ccccc1-c1ccc2nc(C(F)(F)F)cn2c1C [Compound of Present Invention 28, 6-(2-ethylsulfanylphenyl)-5-methyl-2-trifluoromethylimidazo [1,2-a]pyridine]",100
5,"CCSc1ccccc1-c1ccc2nc(C(F)(F)C(F)(F)F)cn2c1C [Compound of Present Invention 29, 6-(2-ethylsulfanylphenyl)-5-methyl-2-pentafluoroethylimidazo[1,2-a]pyridine]",100
6,"CCSc1ccccc1-c1ccc2nc(C(F)(F)F)cn2n1 [Compound of Present Invention 33, 6-(2-ethylsulfanylphenyl)-2-trifluoromethylimidazo[1,2-b]pyridine]",100
7,"CCSc1ccccc1-c1cnc2nc(C(F)(F)F)cn2c1 [Compound of Present Invention 35, 6-(2-ethylsulfanylphenyl)-2-trifluoromethylimidazo[1,2-a]pyrimidine]",100
8,"CCSc1ccccc1-c1ccn2cc(C(F)(F)F)nc2c1 [Compound of Present Invention 37, 7-(2-ethylsulfanylphenyl)-2-trifluoromethylimidazo[1,2-a]pyridine]",100
